Laboratory results from US20240208957A1, “TRIAZINE DERIVATIVE AS REVERSIBLE AND IRREVERSIBLE COVALENT INHIBITORS OF PI3K” (UNIVERSITÄT BASEL, priority 2021, published 2024).
Read-outs that look alike come from different tables or passages of the source.

Tests used:
p110α (PI3Kα) = p110α (PI3Kα) (Homo sapiens, UniProt P42336); assay: LanthaScreen determination of kinetic constants (kinact, Ki) for p110α; type: binding; conditions: for Ki: dissociation constant of the first reversible binding, mean of 3; for kinact: read-out: kinact PI3Kα;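 as to all read-outs here: covalent inhibition constants for p110α come from LanthaScreen data, fitted globally by numerical integration in KinTek Global Kinetic Explorer software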
Sequence of p110α (PI3Kα) (P42336 whole entry): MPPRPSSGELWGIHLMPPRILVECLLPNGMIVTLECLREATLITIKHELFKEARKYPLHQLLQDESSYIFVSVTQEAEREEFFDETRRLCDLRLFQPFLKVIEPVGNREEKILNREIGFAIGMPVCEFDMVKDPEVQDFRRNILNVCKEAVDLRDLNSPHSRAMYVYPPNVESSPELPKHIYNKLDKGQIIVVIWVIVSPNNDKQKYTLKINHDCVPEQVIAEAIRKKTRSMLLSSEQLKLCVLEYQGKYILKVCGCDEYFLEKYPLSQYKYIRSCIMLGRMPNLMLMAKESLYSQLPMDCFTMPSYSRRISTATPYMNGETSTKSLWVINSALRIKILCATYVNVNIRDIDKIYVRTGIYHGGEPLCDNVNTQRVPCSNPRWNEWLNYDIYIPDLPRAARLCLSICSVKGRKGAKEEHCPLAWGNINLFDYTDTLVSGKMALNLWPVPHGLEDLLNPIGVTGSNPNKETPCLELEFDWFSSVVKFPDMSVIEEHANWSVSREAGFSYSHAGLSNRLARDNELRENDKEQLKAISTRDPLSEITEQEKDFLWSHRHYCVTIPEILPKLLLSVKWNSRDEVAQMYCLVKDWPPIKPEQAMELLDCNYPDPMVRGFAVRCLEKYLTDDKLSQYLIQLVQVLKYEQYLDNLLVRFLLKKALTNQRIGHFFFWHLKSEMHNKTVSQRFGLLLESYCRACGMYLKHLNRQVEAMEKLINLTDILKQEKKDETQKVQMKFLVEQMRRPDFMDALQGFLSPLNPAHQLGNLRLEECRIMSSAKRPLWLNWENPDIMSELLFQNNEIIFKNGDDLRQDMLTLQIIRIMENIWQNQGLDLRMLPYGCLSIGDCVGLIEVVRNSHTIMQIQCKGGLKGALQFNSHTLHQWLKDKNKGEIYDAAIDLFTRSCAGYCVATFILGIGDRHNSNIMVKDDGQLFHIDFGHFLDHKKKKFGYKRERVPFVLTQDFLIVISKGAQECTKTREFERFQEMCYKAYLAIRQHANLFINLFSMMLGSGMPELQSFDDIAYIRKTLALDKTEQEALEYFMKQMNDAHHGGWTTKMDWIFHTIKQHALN
Sequence of p110α (PI3Kα) (P27986 whole entry partner): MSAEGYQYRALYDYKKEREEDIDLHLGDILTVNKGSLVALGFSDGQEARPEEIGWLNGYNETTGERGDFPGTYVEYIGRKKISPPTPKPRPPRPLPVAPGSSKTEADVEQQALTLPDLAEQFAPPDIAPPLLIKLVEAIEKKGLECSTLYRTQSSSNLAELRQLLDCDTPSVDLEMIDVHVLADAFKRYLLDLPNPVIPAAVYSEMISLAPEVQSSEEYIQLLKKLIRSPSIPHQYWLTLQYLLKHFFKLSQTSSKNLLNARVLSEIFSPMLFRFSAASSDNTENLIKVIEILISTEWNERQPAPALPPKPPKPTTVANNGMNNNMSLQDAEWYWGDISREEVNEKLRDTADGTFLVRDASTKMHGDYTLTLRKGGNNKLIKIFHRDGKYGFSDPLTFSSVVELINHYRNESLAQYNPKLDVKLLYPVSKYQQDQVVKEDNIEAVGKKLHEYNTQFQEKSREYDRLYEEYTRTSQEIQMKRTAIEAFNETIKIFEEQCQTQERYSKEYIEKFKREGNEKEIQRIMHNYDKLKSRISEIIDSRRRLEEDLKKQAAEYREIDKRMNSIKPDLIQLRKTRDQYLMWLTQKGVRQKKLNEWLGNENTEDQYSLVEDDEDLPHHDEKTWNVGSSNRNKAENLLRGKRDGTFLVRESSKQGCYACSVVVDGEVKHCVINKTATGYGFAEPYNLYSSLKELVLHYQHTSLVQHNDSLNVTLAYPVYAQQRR

[1] = test system: pSer473 of PKB/Akt in SKOV3 cells; assay: In-Cell Western cellular PI3K signaling, pSer473 of PKB/Akt in SKOV3 cells; type: cell-based; conditions: Homo sapiens
Method: Protein phosphorylation was detected as follows: pSer473 of PKB/Akt with rabbit polyclonal antibody from Cell Signaling Technology (CST) (#4058) by In-Cell Western assays, where 1.2×10^4 SKOV3 cells/well in 96-well plates were plated (Cell Carrier, PerkinElmer) for 24 hours (37° C., 5% CO2), as described in Ref.^21.

[2] = SK-OV-3, read-out: IC50 pPKB (S473) SKOV3
[3] = mean of 3 independent measurements, global fitting with KinTek
[4] = SK-OV-3, SKOV3 cells, mean of 2 or 3 independent measurements, read-out: IC50 pPKB (S473) SKOV3

Row | SMILES | Ki (p110α (PI3Kα)) [nM] | kinact/KI (p110α (PI3Kα); PI3Kα, read-out: kinact/Ki) [M⁻¹ s⁻¹] | kinact (p110α (PI3Kα); [3]) [s⁻¹] | IC50 [1, 4] [nM] | kinact/KI (p110α (PI3Kα)) [M⁻¹ s⁻¹] | kinact (p110α (PI3Kα)) [s⁻¹] | IC50 [1, 2] [nM]
1 | C=CC(=O)N1CCC[C@@H](COCC(=O)N2CCN(c3nc(-c4cnc(N)nc4C(F)F)nc(N4CCOC[C@@H]4C)n3)CC2)C1 [Compound 1, 1-((R)-3-((2-(4-(4-(2-amino-4-(difluoromethyl)pyrimidin-5-yl)-6-((S)-3-methylmorpholino)-1,3,5-triazin-2-yl)piperazin-1-yl)-2-oxoethoxy)methyl)piperidin-1-yl)prop-2-en-1-one] | 2.7 | – | – | – | 156000 | 0.000419 | 25.4
2 | C=CC(=O)N1CCC[C@H](COCC(=O)N2CCN(c3nc(-c4cnc(N)nc4C(F)F)nc(N4CCOC[C@@H]4C)n3)CC2)C1 [Compound 2, 1-((S)-3-((2-(4-(4-(2-amino-4-(difluoromethyl)pyrimidin-5-yl)-6-((S)-3-methylmorpholino)-1,3,5-triazin-2-yl)piperazin-1-yl)-2-oxoethoxy)methyl)piperidin-1-yl)prop-2-en-1-one] | 2.78 | 94300 | 0.000262 | 28.8 | – | – | –
3 | C=CC(=O)N1CC[C@H](COCC(=O)N2CCN(c3nc(-c4cnc(N)nc4C(F)F)nc(N4CCOC[C@@H]4C)n3)CC2)C1 [Compound 3, 1-((S)-3-((2-(4-(4-(2-amino-4-(difluoromethyl)pyrimidin-5-yl)-6-((S)-3-methylmorpholino)-1,3,5-triazin-2-yl)piperazin-1-yl)-2-oxoethoxy)methyl)pyrrolidin-1-yl)prop-2-en-1-one] | – | 502000 | 0.000432 | 23 | – | – | –
4 | C=CC(=O)N1CCC[C@@H](OCCC(=O)N2CCN(c3nc(-c4cnc(N)nc4C(F)F)nc(N4CCOC[C@@H]4C)n3)CC2)C1 [Compound 5, 1-((R)-3-(3-(4-(4-(2-amino-4-(difluoromethyl)pyrimidin-5-yl)-6-((S)-3-methylmorpholino)-1,3,5-triazin-2-yl)piperazin-1-yl)-3-oxopropoxy)piperidin-1-yl)prop-2-en-1-one] | 8.88 | – | – | – | 595000 | 0.0052 | 17.1
5 | N#C/C(=C/C1CC1)C(=O)N1CCC[C@@H](COCC(=O)N2CCN(c3nc(-c4cnc(N)nc4C(F)F)nc(N4CCOCC4)n3)CC2)C1 [Compound 8, (R,Z)-2-(3-((2-(4-(4-(2-amino-4-(difluoromethyl)pyrimidin-5-yl)-6-morpholino-1,3,5-triazin-2-yl)piperazin-1-yl)-2-oxoethoxy)methyl)piperidine-1-carbonyl)-3-cyclopropylacrylonitrile] | 2.78 | – | – | – | 3.96e+06 | 0.011 | 11.6
6 | N#C/C(=C/C1CC1)C(=O)N1CC[C@@H](COCC(=O)N2CCN(c3nc(-c4cnc(N)nc4C(F)F)nc(N4CCOCC4)n3)CC2)C1 [Compound 10, (R,Z)-2-(3-((2-(4-(4-(2-amino-4-(difluoromethyl)pyrimidin-5-yl)-6-morpholino-1,3,5-triazin-2-yl)piperazin-1-yl)-2-oxoethoxy)methyl)pyrrolidine-1-carbonyl)-3-cyclopropylacrylonitrile] | 1.09 | 1.02e+07 | 0.0111 | 23.1 | – | – | –
7 | C=C(F)C(=O)N1CCC[C@@H](COCC(=O)N2CCN(c3nc(-c4cnc(N)nc4C(F)F)nc(N4CCOCC4)n3)CC2)C1 [Compound 11, (R)-1-(3-((2-(4-(4-(2-amino-4-(difluoromethyl)pyrimidin-5-yl)-6-morpholino-1,3,5-triazin-2-yl)piperazin-1-yl)-2-oxoethoxy)methyl)piperidin-1-yl)-2-fluoroprop-2-en-1-one] | 1.85 | – | – | 19.9 | – | – | –
8 | C=CC(=O)N1CCC[C@@H](C(=O)NCCN2CCN(c3nc(-c4cnc(N)nc4C(F)F)nc(N4CCOCC4)n3)CC2)C1 [Compound 19, (R)-1-acryloyl-N-(2-(4-(4-(2-amino-4-(difluoromethyl)pyrimidin-5-yl)-6-morpholino-1,3,5-triazin-2-yl)piperazin-1-yl)ethyl)piperidine-3-carboxamide] | 12 | 16300 | 0.000196 | 28.8 | – | – | –
9 | C=CC(=O)N1CC(C(=O)NCCN2CCN(c3nc(-c4cnc(N)nc4C(F)F)nc(N4CCOCC4)n3)CC2)C1 [Compound 36, 1-acryloyl-N-(2-(4-(4-(2-amino-4-(difluoromethyl)pyrimidin-5-yl)-6-morpholino-1,3,5-triazin-2-yl)piperazin-1-yl)ethyl)azetidine-3-carboxamide] | – | – | – | 48.2 | – | – | –
10 | C[C@H]1COCCN1c1nc(-c2cnc(N)nc2C(F)F)nc(N2CCN(C(=O)COC[C@@H]3CN(C(=O)/C(C#N)=C\C4CC4)CCO3)CC2)n1 [Compound 43, (Z)-2-((S)-2-((2-(4-(4-(2-amino-4-(difluoromethyl)pyrimidin-5-yl)-6-((S)-3-methylmorpholino)-1,3,5-triazin-2-yl)piperazin-1-yl)-2-oxoethoxy)methyl)morpholine-4-carbonyl)-3-cyclopropylacrylonitrile] | 13.8 | 1.04e+06 | 0.0143 | – | – | – | –

Continued, in another order:

Row | Ki (p110α (PI3Kα)) [nM] | kinact/KI (p110α (PI3Kα); PI3Kα, read-out: kinact/Ki) [M⁻¹ s⁻¹] | kinact (p110α (PI3Kα); [3]) [s⁻¹] | IC50 [1, 4] [nM] | SMILES | kinact/KI (p110α (PI3Kα)) [M⁻¹ s⁻¹] | kinact (p110α (PI3Kα)) [s⁻¹] | IC50 [1, 2] [nM]
11 | 11.7 | 325000 | 0.00383 | 35.7 | C=CC(=O)N1CC[C@@H](COCC(=O)N2CCN(c3nc(-c4cnc(N)nc4C(F)F)nc(N4CCOC[C@@H]4C)n3)CC2)C1 [Compound 4, 1-((R)-3-((2-(4-(4-(2-amino-4-(difluoromethyl)pyrimidin-5-yl)-6-((S)-3-methylmorpholino)-1,3,5-triazin-2-yl)piperazin-1-yl)-2-oxoethoxy)methyl)pyrrolidin-1-yl)prop-2-en-1-one] | – | – | –
12 | 1.11 | 9.43e+06 | 0.0105 | 14.4 | N#C/C(=C/C1CC1)C(=O)N1CC[C@H](COCC(=O)N2CCN(c3nc(-c4cnc(N)nc4C(F)F)nc(N4CCOCC4)n3)CC2)C1 [Compound 9, (S,Z)-2-(3-((2-(4-(4-(2-amino-4-(difluoromethyl)pyrimidin-5-yl)-6-morpholino-1,3,5-triazin-2-yl)piperazin-1-yl)-2-oxoethoxy)methyl)pyrrolidine-1-carbonyl)-3-cyclopropylacrylonitrile] | – | – | –
13 | – | – | – | 15.4 | C=C(F)C(=O)N1CCC[C@H](COCC(=O)N2CCN(c3nc(-c4cnc(N)nc4C(F)F)nc(N4CCOCC4)n3)CC2)C1 [Compound 12, (S)-1-(3-((2-(4-(4-(2-amino-4-(difluoromethyl)pyrimidin-5-yl)-6-morpholino-1,3,5-triazin-2-yl)piperazin-1-yl)-2-oxoethoxy)methyl)piperidin-1-yl)-2-fluoroprop-2-en-1-one] | – | – | –
14 | – | – | – | 18 | Nc1ncc(-c2nc(N3CCOCC3)nc(N3CCN(C(=O)COC[C@@H]4CCCN(C(=O)/C=C/CF)C4)CC3)n2)c(C(F)F)n1 [Compound 13, (R,E)-1-(3-((2-(4-(4-(2-amino-4-(difluoromethyl)pyrimidin-5-yl)-6-morpholino-1,3,5-triazin-2-yl)piperazin-1-yl)-2-oxoethoxy)methyl)piperidin-1-yl)-4-fluorobut-2-en-1-one] | – | – | –
15 | 1.91 | – | – | 22.2 | Nc1ncc(-c2nc(N3CCOCC3)nc(N3CCN(C(=O)COC[C@H]4CCCN(C(=O)/C=C/CF)C4)CC3)n2)c(C(F)F)n1 [Compound 14, (S,E)-1-(3-((2-(4-(4-(2-amino-4-(difluoromethyl)pyrimidin-5-yl)-6-morpholino-1,3,5-triazin-2-yl)piperazin-1-yl)-2-oxoethoxy)methyl)piperidin-1-yl)-4-fluorobut-2-en-1-one] | – | – | –
16 | – | – | – | 236 | C/C=C/C(=O)N1CC(C(=O)N(C)CC(=O)N2CCN(c3nc(-c4cnc(N)nc4C(F)F)nc(N4CCOCC4)n3)CC2)C1 [Compound 34, (E)-N-(2-(4-(4-(2-amino-4-(difluoromethyl)pyrimidin-5-yl)-6-morpholino-1,3,5-triazin-2-yl)piperazin-1-yl)-2-oxoethyl)-1-(but-2-enoyl)-N-methylazetidine-3-carboxamide] | – | – | –
17 | 7.27 | 224000 | 0.00163 | – | C=CC(=O)N1CCO[C@@H](COCC(=O)N2CCN(c3nc(-c4cnc(N)nc4C(F)F)nc(N4CCOC[C@@H]4C)n3)CC2)C1 [Compound 40, 1-((R)-2-((2-(4-(4-(2-amino-4-(difluoromethyl)pyrimidin-5-yl)-6-((S)-3-methylmorpholino)-1,3,5-triazin-2-yl)piperazin-1-yl)-2-oxoethoxy)methyl)morpholino)prop-2-en-1-one] | – | – | –
18 | 11.6 | 1.05e+06 | 0.0121 | – | C[C@H]1COCCN1c1nc(-c2cnc(N)nc2C(F)F)nc(N2CCN(C(=O)COC[C@H]3CN(C(=O)/C(C#N)=C\C4CC4)CCO3)CC2)n1 [Compound 41, (Z)-2-((R)-2-((2-(4-(4-(2-amino-4-(difluoromethyl)pyrimidin-5-yl)-6-((S)-3-methylmorpholino)-1,3,5-triazin-2-yl)piperazin-1-yl)-2-oxoethoxy)methyl)morpholine-4-carbonyl)-3-cyclopropylacrylonitrile] | – | – | –
19 | 7.1 | 75400 | 0.000537 | – | C=CC(=O)N1CCO[C@H](COCC(=O)N2CCN(c3nc(-c4cnc(N)nc4C(F)F)nc(N4CCOC[C@@H]4C)n3)CC2)C1 [Compound 42, 1-((S)-2-((2-(4-(4-(2-amino-4-(difluoromethyl)pyrimidin-5-yl)-6-((S)-3-methylmorpholino)-1,3,5-triazin-2-yl)piperazin-1-yl)-2-oxoethoxy)methyl)morpholino)prop-2-en-1-one] | – | – | –
